Test system: ICR male mice
Assay: Forced swim test (mouse, mFST)
Format: in vivo
Conditions: po, mouse forced swim test, 1 hr, read-out: mFST protection % at administration dose
Experimental: In order to determine the anti-depressant effect in rodents, the forced swim test was performed with rats and mice. The forced swim test causes an immobile state by forcing an animal to swim in a confined space. It reflects a state of despair giving up evading such a circumstance. ICR male mice (25 g to 30 g) and Wistar male rats (240 g to 260 g) were purchased from Samtako Bio Korea Co. (Korea) and allowed to acclimatize for 1 week before being tested in a controlled animal facility (temperature 22±2° C., humidity 55±5%). The test compound was dissolved in 20% Tween80 and administered orally 60 minutes before testing. The control group was provided with a corresponding vehicle. […] 15 minutes of forced swimming was performed a day before the experiment. On the day of the experiment, the animal was placed in the cylinder 60 minutes after the administration of the compound and was videotaped for 6 minutes. In the recorded videos, time during which the animal placed its head on the water and remained still without movement was measured based on the remaining 4 minutes excluding the first 2 minutes. It was evaluated that the lower the value of the immobile posture time, the greater the anti-depressant action (Reference; Porsolt R D, Le Pichon M. Jalfre M. 1997. Depression: a new animal model sensitive to antidepressant treatments. Nature. April 21; 266(5604):730-2.).
The result was shown as the standard error of measurement (SEM) of mean value t mean value. Behavioral data were analyzed by one-way ANOVA. For statistical significance, a value of <0.05 was taken (***p<0.001, **p=0.001˜0.01, *p=0.01˜0.05). Data management and statistics were performed using the Prism software of Windows version 4 (GraphPad Softward Co., San Diego, CA, USA).
Based on the results of Table 7, the ED50 value of the compound of Example 2 was calculated and shown in Table 7, and after 30 mg/kg and 60 mg/kg of the compounds of the other remaining examples were administered based on TD50 values to perform the forced swim tests, respectively, the administration doses with protected efficacy and protection % at the corresponding administration doses were shown in Table 7.

Compound: NS(=O)(=O)OC[C@@H]1OC2(CCCC2)O[C@H]1c1ccccc1Cl [Example 10, ((2S,3S)-3-(2-chlorophenyl)-1,4-dioxaspiro[4,4]nonan-2-yl)methyl sulfamate]
- inhibition in vivo at 60 mg/kg: 19%

Compound: CC1(C)O[C@@H](COS(N)(=O)=O)[C@H](c2ccc(Cl)cc2Cl)O1 [Example 40, ((4S,5S)-5-(2,4-dichlorophenyl)-2,2-dimethyl-1,3-dioxolan-4-yl)methyl sulfamate]
- inhibition in vivo at 30 mg/kg: 64.2%

Compound: NS(=O)(=O)OC[C@H]1OC2(CCCC2)O[C@@H]1c1c(Cl)cccc1Cl [Example 57, ((2R,3R)-3-(2,6-dichlorophenyl)-1,4-dioxaspiro[4,4]nonan-2-yl)methyl sulfamate]
- inhibition in vivo at 30 mg/kg: 61.6%

Compound: Nc1ccccc1[C@@H]1OC2(CCCC2)O[C@H]1COS(N)(=O)=O [Example 72, ((2S,3S)-3-(2-aminophenyl)-1,4-dioxaspiro[4,4]nonan-2-yl)methyl sulfamate]
- inhibition in vivo at 60 mg/kg: 54.3%

Compound: NS(=O)(=O)OC[C@@H]1OC(=O)O[C@H]1c1ccccc1[N+](=O)[O-] [Example 90, ((4S,5S)-5-(2-nitrophenyl)-2-oxo-1,3-dioxolan-4-yl)methyl sulfamate]
- inhibition in vivo at 60 mg/kg: 60.4%

Compound: Cc1ccccc1[C@@H]1OC(C)(C)O[C@H]1COS(N)(=O)=O [Example 92, ((4S,5S)-5-(2-methylphenyl)-2,2-dimethyl-1,3-dioxolan-4-yl)methyl sulfamate]
- inhibition in vivo at 30 mg/kg: 47%

Compound: CC1(C)O[C@@H](COS(N)(=O)=O)[C@H](c2ccccc2)O1 [Example 106, ((4S,5S)-5-phenyl-2,2-dimethyl-1,3-dioxolan-4-yl)methyl sulfamate]
- inhibition in vivo at 60 mg/kg: 24.5%

Compound: NS(=O)(=O)OC[C@@H]1OC2(CCCC2)O[C@H]1c1ccccc1 [Example 110, ((2S,3S)-3-phenyl-1,4-dioxaspiro[4,4]nonan-2-yl)methyl sulfamate]
- inhibition in vivo at 60 mg/kg: 39.3%

Compound: CC1(C)O[C@@H](CCOS(N)(=O)=O)[C@H](Cc2ccccc2)O1 [Example 114, 2-((4S,5S)-5-benzyl-2,2-dimethyl-1,3-dioxolan-4-yl)ethyl sulfamate]
- inhibition in vivo at 60 mg/kg: 36.4%

Compound: NS(=O)(=O)OCC[C@@H]1OC2(CCCC2)O[C@H]1Cc1ccccc1 [Example 118, 2-((2S,3S)-3-benzyl-1,4-dioxaspiro[4,4]nonan-2-yl)ethyl sulfamate]
- inhibition in vivo at 60 mg/kg: 35.3%

Compound: CC1(C)O[C@@H](COS(N)(=O)=O)[C@H](Cc2ccccc2)O1 [Example 122, ((4S,5S)-5-benzyl-2,2-dimethyl-1,3-dioxolan-4-yl)methyl sulfamate]
- inhibition in vivo at 30 mg/kg: 46.9%

Compound: NS(=O)(=O)OC[C@@H]1OC2(CCCC2)O[C@H]1Cc1ccccc1 [Example 126, ((2S,3S)-3-benzyl-1,4-dioxaspiro[4,4]nonan-2-yl)methyl sulfamate]
- inhibition in vivo at 60 mg/kg: 43%

Compound: CC1(C)O[C@@H](CCOS(N)(=O)=O)[C@H](c2ccccc2)O1 [Example 130, 2-((4S,5S)-5-phenyl-2,2-dimethyl-1,3-dioxolan-4-yl)ethyl sulfamate]
- inhibition in vivo at 30 mg/kg: 57.5%

Compound: NS(=O)(=O)OCC[C@@H]1OC2(CCCC2)O[C@H]1c1ccccc1 [Example 134, 2-((2S,3S)-3-phenyl-1,4-dioxaspiro[4,4]nonan-2-yl)ethyl sulfamate]
- inhibition in vivo at 30 mg/kg: 63%

Compound: CC1(C)O[C@@H](CCOS(N)(=O)=O)[C@H](Cc2ccccc2Cl)O1 [Example 138, 2-((4S,5S)-5-(2-chlorobenzyll)-2,2-dimethyl-1,3-dioxolan-4-yl)ethyl sulfamate]
- inhibition in vivo at 60 mg/kg: 60.2%

Compound: NS(=O)(=O)OCC[C@@H]1OC2(CCCC2)O[C@H]1Cc1ccccc1Cl [Example 142, 2-((2S,3S)-3-(2-chlorobenzyl)-1,4-dioxaspiro[4,4]nonan-2-yl)ethyl sulfamate]
- inhibition in vivo at 60 mg/kg: 45.9%

Compound: CC1(C)O[C@@H](COS(N)(=O)=O)[C@H](Cc2ccccc2Cl)O1 [Example 146, ((4S,5S)-5-(2-chlorobenzyl)-2,2-dimethyl-1,3-dioxolan-4-yl)methyl sulfamate]
- inhibition in vivo at 60 mg/kg: 65.1%

Compound: NS(=O)(=O)OC[C@@H]1OC2(CCCC2)O[C@H]1Cc1ccccc1Cl [Example 150, ((2S,3S)-3-(2-chlorobenzyl)-1,4-dioxaspiro[4,4]nonan-2-yl)methyl sulfamate]
- inhibition in vivo at 60 mg/kg: 56.9%

Compound: CC1(C)O[C@@H](CCOS(N)(=O)=O)[C@H](c2ccccc2Cl)O1 [Example 154, 2-((4S,5S)-5-(2-chlorophenyl)-2,2-dimethyl-1,3-dioxolan-4-yl)ethyl sulfamate]
- inhibition in vivo at 60 mg/kg: 38.9%

Compound: NS(=O)(=O)OCC[C@@H]1OC2(CCCC2)O[C@H]1c1ccccc1Cl [Example 158, 2-((2S,3S)-3-(2-chlorophenyl)-1,4-dioxaspiro[4,4]nonan-2-yl)ethyl sulfamate]
- inhibition in vivo at 30 mg/kg: 51.6%

Compound: CC1(C)O[C@@H](COS(N)(=O)=O)[C@H](c2sc(Cl)nc2Cl)O1 [Example 164, ((4S,5R)-5-(2,4-dichlorothiazol-5-yl)-2,2-dimethyl-1,3-dioxolan-4-yl)methyl sulfamate]
- inhibition in vivo at 60 mg/kg: 44.9%

Compound: CC1(C)O[C@@H](COS(N)(=O)=O)[C@H](c2cnc(Cl)s2)O1 [Example 166, ((4R,5S)-5-(2-chlorothiazol-5-yl)-2,2-dimethyl-1,3-dioxolan-4-yl)methyl-sulfamate]
- inhibition in vivo at 60 mg/kg: 53.3%

— patent US11896593B2, “Sulfamate derivative compounds for use in treating or alleviating a psychiatric disorder” (Bio-Pharm Solutions Co., Ltd., priority 2020, dated 2024)
